{"source": "the Deep4Chem optical property database", "assay": "solvent given as SMILES", "data": [{"smiles": "CC(C)(C)c1ccc2c(c1)c1cc(C(C)(C)C)ccc1n2-c1ccc(C#Cc2ccc3c4ccc(C#Cc5ccc(/C=C(/C#N)C(=O)O)cc5)cc4n(-c4ccc(C(F)(F)F)cc4)c3c2)cc1", "values": [{"measurement": "absorption maximum", "setting": "in ClCCl", "value": 386, "unit": "nm"}]}, {"smiles": "CCC1=C(C)C2=C(c3cc(C4=C5C(C)=C(CC)C(C)=[N+]5[B-](F)(F)n5c(C)c(CC)c(C)c54)cc(C4=C5C(C)=C(CC)C(C)=[N+]5[B-](F)(F)n5c(C)c(CC)c(C)c54)c3)c3c(C)c(CC)c(C)n3[B-](F)(F)[N+]2=C1C", "values": [{"measurement": "absorption maximum", "setting": "in C1CCOC1", "value": 534, "unit": "nm"}, {"measurement": "absorption maximum", "setting": "in CC#N", "value": 531, "unit": "nm"}, {"measurement": "absorption maximum", "setting": "in CN(C)C=O", "value": 539, "unit": "nm"}, {"measurement": "absorption maximum", "setting": "in Cc1ccccc1", "value": 537, "unit": "nm"}, {"measurement": "absorption maximum", "setting": "in ClC(Cl)Cl", "value": 538, "unit": "nm"}]}, {"smiles": "CCN(CC)c1ccc2c(c1)oc(=O)c1c(-c3ccccc3C(=O)O)c3ccc(=[N+](CC)CC)cc-3oc12", "values": [{"measurement": "absorption maximum", "setting": "in CCO", "value": 591, "unit": "nm"}, {"measurement": "absorption maximum", "setting": "in ClC(Cl)Cl", "value": 602, "unit": "nm"}, {"measurement": "absorption maximum", "setting": "in O", "value": 594, "unit": "nm"}]}, {"smiles": "COc1ccc2c(-c3nc(-c4ccccc4)no3)cc(=O)oc2c1", "values": [{"measurement": "absorption maximum", "setting": "in CCO", "value": 344, "unit": "nm"}, {"measurement": "absorption maximum", "setting": "in ClC(Cl)Cl", "value": 345, "unit": "nm"}]}, {"smiles": "CCC1(CC)c2cc(N(C)C)ccc2-c2ccc(C(F)(F)F)cc21", "values": [{"measurement": "absorption maximum", "setting": "in C1CCCCC1", "value": 341, "unit": "nm"}, {"measurement": "absorption maximum", "setting": "in CC#N", "value": 302, "unit": "nm"}, {"measurement": "absorption maximum", "setting": "in CCO", "value": 342, "unit": "nm"}, {"measurement": "absorption maximum", "setting": "in CCOCC", "value": 342, "unit": "nm"}, {"measurement": "absorption maximum", "setting": "in CS(C)=O", "value": 350, "unit": "nm"}, {"measurement": "absorption maximum", "setting": "in ClCCl", "value": 344, "unit": "nm"}, {"measurement": "absorption maximum", "setting": "in c1ccccc1", "value": 346, "unit": "nm"}]}, {"smiles": "CCCCOC(=O)c1cc(Cl)c2c3c(Cl)cc4c5c(cc(Cl)c(c6c(Cl)cc(C(=O)OCCCC)c1c26)c53)C(=O)N(c1c(C(C)C)cccc1C(C)C)C4=O", "values": [{"measurement": "absorption maximum", "setting": "in Cc1ccccc1", "value": 496, "unit": "nm"}]}, {"smiles": "c1ccc(-p2c(-c3cccs3)cc3ccccc32)cc1", "note": "(configuration not stated)", "values": [{"measurement": "absorption maximum", "setting": "in C1CCOC1", "value": 350, "unit": "nm"}]}, {"smiles": "C[N+]1=C(/C=C/C2=C3Oc4c(cc5c6c4CCCN6CCC5)C(c4ccccc4C(=O)O)=C3CCC2)C(C)(C)c2c1ccc1ccccc21", "values": [{"measurement": "absorption maximum", "setting": "in CC#N", "value": 742, "unit": "nm"}, {"measurement": "absorption maximum", "setting": "in CCO", "value": 728, "unit": "nm"}, {"measurement": "absorption maximum", "setting": "in CO", "value": 730, "unit": "nm"}, {"measurement": "absorption maximum", "setting": "in ClC(Cl)Cl", "value": 746, "unit": "nm"}]}, {"smiles": "CC(C)(C)c1ccc2ccc3c(C(C)(C)C)ccc4ccc1c2c43", "values": [{"measurement": "absorption maximum", "setting": "in CCCCCC", "value": 346, "unit": "nm"}, {"measurement": "absorption maximum", "setting": "in CO", "value": 345, "unit": "nm"}, {"measurement": "absorption maximum", "setting": "in ClCCl", "value": 348, "unit": "nm"}]}, {"smiles": "O=c1ccc2ccc(C#Cc3ccccc3)cc2o1", "values": [{"measurement": "absorption maximum", "setting": "in CC#N", "value": 300, "unit": "nm"}]}, {"smiles": "C1=Cc2ccccc2C(=Cc2ccc(-c3cc(-c4ccc(C=C5c6ccccc6C=Cc6ccccc65)cc4)cc(-c4ccc(C=C5c6ccccc6C=Cc6ccccc65)cc4)c3)cc2)c2ccccc21", "values": [{"measurement": "absorption maximum", "setting": "in C1CCOC1", "value": 325, "unit": "nm"}]}, {"smiles": "Cc1ccc(N2C(c3ccccc3N)=NC(c3ccccc3)C2c2ccccc2)cc1", "note": "(configuration not stated)", "values": [{"measurement": "absorption maximum", "setting": "in Cc1ccccc1", "value": 282, "unit": "nm"}]}, {"smiles": "CCNc1cc2c(cc1C)C(c1ccccc1C(=O)O)=C1CCCC(/C=C/C3=[N+](C)c4ccccc4C3(C)C)=C1O2", "values": [{"measurement": "absorption maximum", "setting": "in CC#N", "value": 696, "unit": "nm"}, {"measurement": "absorption maximum", "setting": "in CCO", "value": 688, "unit": "nm"}, {"measurement": "absorption maximum", "setting": "in CO", "value": 690, "unit": "nm"}, {"measurement": "absorption maximum", "setting": "in ClC(Cl)Cl", "value": 702, "unit": "nm"}]}, {"smiles": "CC[n+]1nc2cc3c4c(c2c2ccccc21)CCCN4CCC3", "values": [{"measurement": "absorption maximum", "setting": "in O", "value": 493, "unit": "nm"}]}, {"smiles": "Cc1ccc(C)cc1", "values": [{"measurement": "absorption maximum", "setting": "in C1CCCCC1", "value": 262.88, "unit": "nm"}]}, {"smiles": "CC(C)(C)c1ccc2c(c1)c1cc(C(C)(C)C)ccc1n2-c1cccc(-n2c3ccc(C(C)(C)C)cc3c3cc(C(C)(C)C)ccc32)c1C#N", "values": [{"measurement": "absorption maximum", "setting": "in Cc1ccccc1", "value": 367, "unit": "nm"}]}, {"smiles": "c1ccc(-c2nc(-c3ccccc3)nc(-n3c4ccccc4c4cc(-n5c6ccccc6c6ccccc65)cc(-n5c6ccccc6c6ccccc65)c43)n2)cc1", "values": [{"measurement": "absorption maximum", "setting": "in C1CCOC1", "value": 332.68, "unit": "nm"}]}, {"smiles": "COC(=O)C(NC(=O)OC(C)(C)C)c1ccc2oc(-c3cc(OC)ccc3OC)nc2c1", "note": "(configuration not stated)", "values": [{"measurement": "absorption maximum", "setting": "in CC1CCCCC1", "value": 332, "unit": "nm"}, {"measurement": "absorption maximum", "setting": "in CC#N", "value": 333, "unit": "nm"}, {"measurement": "absorption maximum", "setting": "in CO", "value": 337, "unit": "nm"}]}, {"smiles": "O=[N+]([O-])c1ccc(NCCNCc2c3ccccc3cc3ccccc23)c([N+](=O)[O-])c1", "values": [{"measurement": "absorption maximum", "setting": "in C1CCCCC1", "value": 368, "unit": "nm"}, {"measurement": "absorption maximum", "setting": "in C1CCOC1", "value": 349, "unit": "nm"}, {"measurement": "absorption maximum", "setting": "in CC#N", "value": 364, "unit": "nm"}, {"measurement": "absorption maximum", "setting": "in CC(C)=O", "value": 364, "unit": "nm"}, {"measurement": "absorption maximum", "setting": "in CCO", "value": 364, "unit": "nm"}, {"measurement": "absorption maximum", "setting": "in CN(C)C=O", "value": 363, "unit": "nm"}, {"measurement": "absorption maximum", "setting": "in CO", "value": 348, "unit": "nm"}, {"measurement": "absorption maximum", "setting": "in ClC(Cl)Cl", "value": 350, "unit": "nm"}]}, {"smiles": "CC(=O)Nc1cccc2c1C#Cc1c(cccc1C(=O)N(C)C)OCCCO2", "values": [{"measurement": "absorption maximum", "setting": "in CC#N", "value": 315, "unit": "nm"}, {"measurement": "absorption maximum", "setting": "in ClCCl", "value": 318, "unit": "nm"}]}, {"smiles": "c1ccc(-c2nnc(-c3cc(-c4nnc(-c5ccccc5)o4)c(-n4c5ccccc5c5ccccc54)cc3-n3c4ccccc4c4ccccc43)o2)cc1", "values": [{"measurement": "absorption maximum", "setting": "in Cc1ccccc1", "value": 370, "unit": "nm"}]}]}
